For three compounds, Triple point temperature results are on record in the NIST ThermoML archive (doi:10.1016/j.fluid.2013.06.019).

Numbers after ± are expanded uncertainties.

The conditions of this data set: Crystal; Heating/Cooling curves.
On to `C=C(F)C(F)(F)F` [2,3,3,3-tetrafluoro-1-propene], for which the Triple point temperature came to 122.6 ± 2 K.
As to `O=C=O` [carbon dioxide], the Triple point temperature was 216.6 ± 2 K.
As for `F/C=C/C(F)(F)F` [trans-1,3,3,3-tetrafluoropropene], the Triple point temperature is on record as 168.8 ± 2 K.
